Columns and labels:
Assay in all cases: cells
Parameters in all cases: species or system panel of 482 human cancer cell lines; ATPLite luminescence growth inhibition after treatment, nine-point dilution curve, 482 cancer cell lines, 384-well
Conditions in all cases: 72 h, recommended growth medium
[1] = system: AMO1_HAEMATOPOIETIC_AND_LYMPHOID_TISSUE
Summary of the method: (§1)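 Growth inhibition was measured across a panel of 482 cancer cell lines. Cells were plated at 500 cells per well in recommended growth media in black, tissue culture treated 384-well plates, centrifuged to equilibrate, and incubated 24 h before dosing. Compounds were tested as nine-point dilution curves for 72 h, with viability read by ATPLite luminescence relative to DMSO-treated controls.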

[2] = system: BEN_LUNG
Summary of the method: as §1

[3] = system: CAL33_UPPER_AERODIGESTIVE_TRACT
Summary of the method: as §1

[4] = system: CHP126_AUTONOMIC_GANGLIA
Summary of the method: as §1

[5] = system: FARAGE_NS
Summary of the method: as §1

[6] = system: HCC1500_BREAST
Summary of the method: as §1

[7] = system: HCC2218_BREAST
Summary of the method: as §1

[8] = system: HCC95_LUNG
Summary of the method: as §1

[9] = system: KYSE510_OESOPHAGUS
Summary of the method: as §1

[10] = system: MINO_HAEMATOPOIETIC_AND_LYMPHOID_TISSUE
Summary of the method: as §1

[11] = system: NCIH1435_LUNG
Summary of the method: as §1

[12] = system: NCIH1581_LUNG
Summary of the method: as §1

[13] = system: NCIH2110_LUNG
Summary of the method: as §1

[14] = system: SKNFI_AUTONOMIC_GANGLIA
Summary of the method: as §1

[15] = system: TE11_OESOPHAGUS
Summary of the method: as §1

[16] = system: UACC893_BREAST
Summary of the method: as §1

[17] = system: WSUNHL_HAEMATOPOIETIC_AND_LYMPHOID_TISSUE
Summary of the method: as §1

GI50 [6]: 1480 nM
GI50 [7]: 7170 nM
GI50 [8]: 134 nM
GI50 [14]: 15.1 nM
SMILES: CCN(C/C=C/C#CC(C)(C)C)Cc1cccc(OCc2cc(-c3ccsc3)cs2)c1 [NB-598]
GI50 [1]: 32 nM
GI50 [2]: 21400 nM
GI50 [3]: 42.5 nM
GI50 [4]: 38.2 nM
GI50 [5]: 14.2 nM
GI50 [9]: 73.1 nM
GI50 [10]: 33400 nM
GI50 [11]: 3.11 nM
GI50 [12]: 12.4 nM
GI50 [13]: 36200 nM
GI50 [15]: 8580 nM
GI50 [16]: 1190 nM
GI50 [17]: 21.8 nM
